Measured values reported in patent US9221814B2, “Heterocyclic guanidine F1F0-atpase inhibitors and therapeutic uses thereof” (Lycera Corporation, priority 2012, dated 2015).
Like-named read-outs stand apart in the source and are kept apart here.

Assays:
F1F0-ATPase = molecular target: T1, F1F0-ATPase (Bos taurus, UniProt P13621); assay: Inhibition of F1F0-ATPase activity in synthesizing ATP (ATP synthesis inhibition); type: biochemical; conditions: detection limit IC50=16 μM, read-out: ATP Syn IC50
T1 construct: from tissue
Procedure: (§1) Exemplary compounds described in above Examples were tested for activity against F1F0-ATPase by measuring the ability of the compounds to inhibit ATP synthesis. In addition, the compounds were assessed for cytotoxicity in Ramos cells. Inhibition of F1F0-ATPase activity in synthesizing ATP and cytotoxicity in Ramos cells were measured according to the procedures described in K. M. Johnson et al. Chemistry & Biology 2005, 12, 485-496.

Ramos cells = assay: Cytotoxicity in Ramos cells; type: cell-based; conditions: detection limit EC50=16 μM, read-out: Ramos Cell EC50
Procedure: as §1

Compound	IC50 (F1F0-ATPase)	EC50 (Ramos cells)	EC50 (Ramos cells; Homo sapiens)
Cc1cc(C(=O)/N=C(\Nc2cc(-c3cc(F)cc(F)c3)[nH]n2)NC(C)(C)C)c(C(F)(F)F)o1 [Compound A-114]	5 to 16 µM	5 to 16 µM	
CCn1ccc(C(=O)/N=C(\Nc2cc(-c3ccc(F)cc3)n[nH]2)NC(C)C)n1 [Compound A-62]	> 16 µM	> 16 µM	
Cc1oncc1C(=O)N=C(Nc1cc(-c2ccc(F)cc2)n[nH]1)NC1CCCC1 [Compound A-124]	> 16 µM		> 16 µM
COc1ccc(-c2cc(N/C(=N\C(=O)c3cn(C)nc3C(F)(F)F)Nc3cc(Cl)ccc3F)[nH]n2)cc1F [Compound A-160]	5 to 16 µM	> 16 µM	
COC[C@H](C)N/C(=N/C(=O)c1cc(C)on1)Nc1cc(-c2ccc(F)cc2)n[nH]1 [Compound A-52]	> 16 µM	> 16 µM	
COC[C@H](C)N/C(=N/C(=O)c1cc(C)nn1C)Nc1cc(-c2cc(F)cc(F)c2)[nH]n1 [Compound A-84]	5 to 16 µM	> 16 µM	
CC(C)N/C(=N/C(=O)c1cc(C(C)(C)C)nn1C)Nc1cc(-c2ccc(Cl)cc2)n[nH]1 [Compound A-71]	5 to 16 µM	< 5 µM	
CCC(C)N/C(=N/C(=O)c1cnoc1C)Nc1cc(-c2ccc(Cl)cc2)n[nH]1 (stereo not drawn) [Compound A-90]	> 16 µM	> 16 µM	
Cn1cc(C(=O)N=C(Nc2cc(-c3ccc(O)cc3F)n[nH]2)Nc2ccc(F)cc2F)c(C(F)(F)F)n1 [Compound A-4]	5 to 16 µM		< 5 µM
Cn1cc(C(=O)/N=C(\Nc2n[nH]c3cncc(F)c23)NC(C)(C)C)c(C(F)(F)F)n1 [Compound A-141]	5 to 16 µM	5 to 16 µM	
Cc1nnsc1C(=O)/N=C(\Nc1cc(-c2ccc(F)cc2)[nH]n1)NC1CCCC1 [Compound A-122]	> 16 µM	> 16 µM	
Cc1nn(C)cc1C(=O)/N=C(\Nc1cc(F)cc(Cl)c1)Nc1cc(-c2ccc(O)cc2F)n[nH]1 [Compound A-2]	5 to 16 µM	> 16 µM	
COCC(C)NC(=NC(=O)c1cnoc1C)Nc1cc(-c2ccc(Cl)cc2)n[nH]1 (stereo not drawn) [Compound A-75]	5 to 16 µM		> 16 µM
Cc1nc(C(=O)/N=C(/NCC(C)C)Nc2cc(-c3ccc(F)cc3)n[nH]2)c(C)o1 [Compound A-193]	5 to 16 µM	5 to 16 µM	
Cc1cc(C(=O)/N=C(/NCC(C)C)Nc2cc(-c3cc(F)cc(F)c3)[nH]n2)c(C(F)(F)F)o1 [Compound A-116]	< 5 µM	< 5 µM	
Cn1cc(C(=O)/N=C(/Nc2cc(-c3ccc(O)cc3F)n[nH]2)Nc2ccccc2Cl)c(C(F)(F)F)n1 [Compound A-3]	5 to 16 µM	< 5 µM	
Cn1cc(C(=O)/N=C(\Nc2cc(-c3ccc(O)c(F)c3)n[nH]2)Nc2ccc(F)c(O)c2F)c(C(F)(F)F)n1 [Compound 5, N-(((2,4-Difluoro-3-hydroxyphenyl)amino)((3-(3-fluoro-4-hydroxyphenyl)-1H-pyrazol-5-yl)amino)methylene)-1-methyl-3-(trifluoromethyl)-1H-pyrazole-4-carboxamide]	5 to 16 µM		5 to 16 µM

Compound	IC50 (F1F0-ATPase)	EC50 (Ramos cells)	EC50 (Ramos cells; Homo sapiens)
COC[C@H](C)N/C(=N/C(=O)c1cc(C)oc1C(F)(F)F)Nc1cc(-c2cc(F)cc(F)c2)n[nH]1 [Compound A-118]	< 5 µM	5 to 16 µM	
Cn1cc(C(=O)/N=C(/Nc2ccc(F)c(C#N)c2)Nc2cc(-c3ccc(O)c(F)c3)n[nH]2)c(C(F)(F)F)n1 [Compound A-172]	5 to 16 µM	> 16 µM	
CCOCCCN/C(=N/C(=O)c1cnoc1C)Nc1cc(-c2ccc(C)c(F)c2)n[nH]1 [Compound A-106]	5 to 16 µM	> 16 µM	
COc1ccc(-c2cc(N/C(=N\C(=O)c3cn(C)nc3C(F)(F)F)Nc3ccc(F)cc3)[nH]n2)cc1F [Compound A-156]	< 5 µM	> 16 µM	
CCC(C)N/C(=N/C(=O)c1cc(C)oc1C)Nc1cc(-c2ccc(F)cc2)n[nH]1 (stereo not drawn) [Compound A-197]	5 to 16 µM	5 to 16 µM	
CC(C)CN/C(=N/C(=O)c1cn(C)nc1C(F)(F)F)Nc1cc(-c2ccc(O)cc2F)n[nH]1 [Compound 4, N-(((3-(2-Fluoro-4-hydroxyphenyl)-1H-pyrazol-5-yl)amino)(isobutylamino)methylene)-1-methyl-3-(trifluoromethyl)-1H-pyrazole-4-carboxamide]	> 16 µM		> 16 µM
COc1ccc(-c2cc(N/C(=N\C(=O)c3cn(C)nc3C(F)(F)F)Nc3ccccc3C(F)(F)F)[nH]n2)cc1F [Compound A-159]	5 to 16 µM	> 16 µM	
Cn1cc(C(=O)/N=C(/Nc2ccc(F)c(Cl)c2)Nc2cc(-c3ccc(O)c(F)c3)n[nH]2)c(C(F)(F)F)n1 [Compound A-163]	< 5 µM	< 5 µM	
Cn1cc(C(=O)/N=C(/Nc2cc(-c3ccc(O)cc3F)n[nH]2)Nc2ccccc2F)c(C(F)(F)F)n1 [Compound 1, N-(((3-(2-Fluoro-4-hydroxyphenyl)-1H-pyrazol-5-yl)amino)((2-fluorophenyl)amino)methylene)-1-methyl-3-(trifluoromethyl)-1H-pyrazole-4-carboxamide]	5 to 16 µM		< 5 µM
Cc1oncc1C(=O)/N=C(/NCC(C)C)Nc1cc(-c2cc(F)cc(F)c2)n[nH]1 [Compound A-79]	> 16 µM	> 16 µM	
COC[C@H](C)N/C(=N/C(=O)c1cc(C(C)(C)C)nn1C)Nc1cc(-c2ccc(Cl)cc2)n[nH]1 [Compound A-76]	< 5 µM	< 5 µM	
CCCn1ccc(C(=O)/N=C(\Nc2cc(-c3ccc(F)cc3)n[nH]2)NC(C)(C)C)n1 [Compound A-58]	< 5 µM	< 5 µM	
COc1ccc(-c2cc(N/C(=N\C(=O)c3cn(C)nc3C(F)(F)F)NC3CCCC3)n[nH]2)cc1F [Compound A-129]	5 to 16 µM	< 5 µM	
Cn1cc(C(=O)/N=C(\NCC(C)(C)C)Nc2cc(-c3cc(F)cc(F)c3)n[nH]2)c(C(F)(F)F)n1 [Compound A-31]	< 5 µM	< 5 µM	
CSc1ccccc1N/C(=N\C(=O)c1cn(C)nc1C(F)(F)F)Nc1cc(-c2ccc(O)cc2F)n[nH]1 [Compound A-6]	5 to 16 µM	< 5 µM	
Cc1oncc1C(=O)/N=C(\Nc1cc(-c2cc(F)cc(Cl)c2)n[nH]1)NC1CCC1 [Compound A-102]	< 5 µM	< 5 µM	
CSc1cccc(N/C(=N\C(=O)c2cn(C)nc2C(F)(F)F)Nc2cc(-c3ccc(O)cc3F)n[nH]2)c1 [Compound A-7]	5 to 16 µM	< 5 µM	

More lines, main results first:

IC50 (F1F0-ATPase)	Compound	EC50 (Ramos cells)	EC50 (Ramos cells; Homo sapiens)
< 5 µM	Cc1cc(C(=O)/N=C(\Nc2cc(-c3ccc(F)cc3)n[nH]2)NC(C)(C)C)c(C)o1 [Compound A-190]	5 to 16 µM	
< 5 µM	Cn1cc(C(=O)N=C(Nc2cc(-c3ccc(O)c(F)c3)n[nH]2)Nc2cc(Cl)ccc2F)c(C(F)(F)F)n1 [Compound A-168]		5 to 16 µM
< 5 µM	Cc1cc(C(=O)/N=C(/NCC(C)C)Nc2cc(-c3ccc(F)cc3)n[nH]2)c(C)o1 [Compound A-192]	5 to 16 µM	
< 5 µM	CCC(C)N/C(=N\C(=O)c1cn(C)nc1C(F)(F)F)Nc1cc(-c2cc(F)cc(F)c2)n[nH]1 (stereo not drawn) [Compound A-33]	< 5 µM	
< 5 µM	O=C(/N=C(\Nc1cc(C(F)(F)F)n[nH]1)NC1CCOCC1)c1ccc(Cl)s1 [Compound A-209]	< 5 µM	
< 5 µM	Cc1cc(C(=O)/N=C(\Nc2cc(-c3cc(F)cc(F)c3)n[nH]2)NC2CCCC2)n(C)n1 [Compound A-82]	5 to 16 µM	
< 5 µM	Cn1cc(C(=O)/N=C(/Nc2cc(-c3cc(F)cc(F)c3)n[nH]2)NC(C)(C)C)c(C(F)(F)F)n1 [Compound A-25]	< 5 µM	
< 5 µM	CCOCCN/C(=N\C(=O)c1cn(C)nc1C(F)(F)F)Nc1cc(-c2cc(F)cc(F)c2)n[nH]1 [Compound A-30]	< 5 µM	
< 5 µM	Cn1nc(C(C)(C)C)cc1C(=O)/N=C(\Nc1cc(-c2ccc(Cl)cc2)n[nH]1)NC(C)(C)C [Compound A-72]	< 5 µM	
< 5 µM	Cc1oncc1C(=O)/N=C(\Nc1cc(-c2cc(F)cc(Cl)c2)n[nH]1)NC(C)C [Compound A-100]	< 5 µM	
< 5 µM	Cc1cc(Cl)ccc1N/C(=N/C(=O)c1cn(C)nc1C(F)(F)F)Nc1cc(-c2ccc(O)c(F)c2)n[nH]1 [Compound A-187]	< 5 µM	
< 5 µM	CC(C)(C)CN/C(=N/C(=O)c1ccc(Cl)s1)Nc1cc(C(F)(F)F)n[nH]1 [Compound A-208]	< 5 µM	
< 5 µM	COc1ccc(-c2cc(N/C(=N\C(=O)c3cn(C)nc3C(F)(F)F)Nc3cccc(Cl)c3)[nH]n2)cc1F [Compound A-154]	> 16 µM	
< 5 µM	O=C(/N=C(/NCc1ccc(F)cc1Cl)Nc1cc(C(F)(F)F)n[nH]1)c1nccs1 [Compound A-198]	< 5 µM	
< 5 µM	Cc1cc(C(=O)/N=C(/NCc2ccc(F)cc2Cl)Nc2cc(-c3ccc(F)cc3)n[nH]2)n(C)n1 [Compound A-86]	5 to 16 µM	
< 5 µM	Cn1nc(C(C)(C)C)cc1C(=O)/N=C(\Nc1cc(-c2ccc(Cl)cc2)n[nH]1)NC1CCCC1 [Compound A-74]	< 5 µM	
< 5 µM	CCOC(=O)NC1CCC(N/C(=N\C(=O)c2cc(C)oc2C(F)(F)F)Nc2cc(Cl)ccc2OC)CC1 (stereo not drawn) [Compound A-215]		5 to 16 µM
< 5 µM	Cn1cc(C(=O)N=C(Nc2ccc(F)cc2)Nc2cc(-c3ccc(O)cc3F)n[nH]2)c(C(F)(F)F)n1 [Compound A-150]		< 5 µM
< 5 µM	CCOC(=O)NC1CCC(N/C(=N\C(=O)c2cc(C)oc2C(F)(F)F)Nc2cc(OC)ccc2C)CC1 (stereo not drawn) [Compound A-212]		5 to 16 µM
< 5 µM	Cc1cc(C(=O)/N=C(/Nc2cc(F)cc(Cl)c2)Nc2cc(C(F)(F)F)nn2C(C)C)on1 [Compound A-225]		< 5 µM
